According to patent publication US6642209B1, “Use of adenosine compounds to alleviate or normalize pathologically hyperexcited sensory nerve function in a human patient” (priority 1990, dated 2003):

Experiments:
rabbits [1] = assay: Replacement of enflurane anesthesia by ATP infusion, electrical tail stimulation and tail clamp
rabbits [2] = assay: Analgesic activity of adenosine compared with morphine sulfate, tail/ear clamp and electrical stimulation
[3] = Anesthesia score chart comparing anesthetic agents for the four components of anesthesia (Table 1); parameters: key: 0 no effect; 1 minimal; 2 mostly; 3 maximal; details: for Antinociception (analgesia, less pain perception) / Inhibition of Stress (autonomic responses: blood pressure, heart rate; endocrine and metabolic responses) / Muscle Relaxation / Sleep (unconsciousness, amnesia, sedation): Anesthesia Score 0 to 3; for TOTALS of Anesthesia Score: sum of the four components
[4] = tested on: New Zealand white rabbits; assay: Electrical tail stimulation screening: head lift (hypnotic) and escape movement (analgesic) thresholds; type: in vivo, rabbit; details: increasing doses, 60% N2O baseline sedation, FIG. 1
[5] = under 60% N2O, n = 6, Mean ± SD
[6] = N2O 60%, ENF 2.0-[…], ATP 362 ± 164 μg/kg/min, Mean ± SD, n = 6

## Cn1c(=O)c2[nH]cnc2n(C)c1=O [aminophylline, reference compound]
Rabbits [1]; IV aminophylline
  reversal of sustained analgesia after discontinuation of ATP: partially reversed
Rabbits [2]; aminophylline 5-10 mg/kg
  reversal of adenosine induced analgesia: consistently reversed

## [N-]=[N+]=O [Nitrous Oxide, nitrous oxide]
[3]
  Antinociception (analgesia, less pain perception): 1
  Inhibition of Stress (autonomic responses: blood pressure, heart rate; endocrine and metabolic responses): 1
  Muscle Relaxation: 0
  Sleep (unconsciousness, amnesia, sedation): 1
  TOTALS of Anesthesia Score: 3

## FC(F)(F)C(Cl)Br (centres unmarked) [halothane]
[3]
  Antinociception (analgesia, less pain perception): 1
  Inhibition of Stress (autonomic responses: blood pressure, heart rate; endocrine and metabolic responses): 1
  Muscle Relaxation: 1
  Sleep (unconsciousness, amnesia, sedation): 3
  TOTALS of Anesthesia Score: 6
[4]
  EM (purposeful escape movement, analgesic) threshold responses: consistently elevated
  HL (head lift, hypnotic) threshold responses: consistently elevated

## CN1CC[C@]23c4c5ccc(O)c4O[C@H]2[C@@H](O)C=C[C@H]3[C@H]1C5.O=S(=O)(O)O [morphine sulfate]
Rabbits [2]; titrated IV to 2 mg/kg, under 60% N2O
  suppression of responses to stimulation: no animal had complete suppression of all responses
Rabbits [2]; [5]
  BP (Systolic BP): 105 ± 14 mmHg
  HR: 242 ± 72 bpm
  PaCO2: 31 ± 3 mmHg
  PaO2: 123 ± 14 mmHg
  RR (Respiratory Rate): 47 ± 16 bpm

## FC(F)OC(F)(F)C(F)Cl (centres unmarked) [ENF, enflurane, reference compound]
[3]
  Antinociception (analgesia, less pain perception): 1
  Inhibition of Stress (autonomic responses: blood pressure, heart rate; endocrine and metabolic responses): 1
  Muscle Relaxation: 1
  Sleep (unconsciousness, amnesia, sedation): 3
  TOTALS of Anesthesia Score: 6
Rabbits [1]; [6]
  DBP: 49 ± 18 mmHg
  HR: 255 ± 33 bpm
  PaCO2: 25 ± 1 mmHg
  PaO2: 148 ± 16 mmHg
  RR (Respiratory Rate): 72 ± 19 bpm
  SBP: 69 ± 22 mmHg
Rabbits [1]; under 60% N2O
  ENF level that completely inhibits responses to tail clamp: 2-2.5%
